Experimental data published in patent US12516038B2, “Inhibitors of antigen presentation by HLA-DR” (Janssen Pharmaceutica NV, priority 2020, dated 2026).

How the values were obtained:
HLA-DRB1*0401 = HLA-DRB1*0401 (Homo sapiens (Human), UniProt P01903+P01911, A100K/A169T/DEL228-266/F76Y/I96L/K127E/L162R/M171V/N62H/P40V/Q125Y/R42H/S133A/S149N/S66Y/V115G/V209L/W38E); experiment: HLA-DR4 HTRF assay; type: binding; settings: inhibition of loading of Alexa Fluor 647-labeled Cit-CII peptide onto HLA-DR4 (CLIP cleaved)
Outline: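 HLA-DRB1*04:01 construct (α/β fused to human Fc, CLIP pre-cleaved by HRV3C overnight at 4° C) at 3 nM was preincubated 45 min with compound and 1 nM anti-Fc-Tb donor, then 40 nM Alexa647-Cit-CII1236-1249 peptide added. After 90 min at 37° C, the 665/620 nm HTRF ratio gave % inhibition; IC50 by nonlinear regression.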

[1] = system: human peripheral blood CD4+ helper T cells; experiment: Pan-CD4+ T cell activation (off-target assay); type: cell-based; settings: Homo sapiens, T-cell, 24 h, anti-CD3/anti-CD28 stimulation, IL-2 production by ELISA
From the text: The counter-screening was made through an HLA-DR-independent assay (Pan-CD4+ T cell activation assay), i.e., TCR-stimulated pan-T cell activation assay, and consists of activating T cell directly with agonistic antibody targeting the T cell receptor. The lack of inhibition in the counter-screening assay reflects that the inhibition of T cell activation in the HLA-DR4 restricted peptide-specific T cell based assay with the small molecule inhibitors is due to impaired antigen presentation on HLA-DR to the T cell and not due to a direct inhibition of the T cell function by an off-target mechanism (i.e., independently of targeting HLA-DR).
Pan-CD4+ T Cell Activation
Compounds were tested using a pan-T cell activation assay. In this assay, anti-human CD3 antibody (BD Pharmingen #55336) pre-coated at 1 μg/mL to a 96-well assay plate and 1 μg/ml soluble anti-human CD28 (EBioscience #16-0289-85) antibody were used for activating human peripheral blood CD4+ helper T cells (no HLA-DR-expressing APC were present in this assay format), in the presence of compounds (or vehicle control) for 24 hrs. IL-2 production was measured in the culture supernatant by ELISA (Human IL-2 Duo Set ELISA #DY202 from R&D Systems).

[2] = system: HLA-DR4 restricted mouse T cell hybridoma line (DR4.CII.36.8) with HLA-DRB1*04:01-expressing Boleth cells; experiment: HLA-DR4-restricted peptide-specific T cell-based assay (hybridoma assay); settings: Mus musculus, T-cell, 6 h, inhibition of IL-2 production, CII259-273 peptide presented by Boleth cells
Outline: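 Boleth cells (HLA-DRB1*04:01 B cell line) pre-incubated with compound 1 h at 37° C. in DMEM/1% FCS, then DR4.CII.36.8 mouse T cell hybridoma (CII259-273-specific) added for 6 h with CII259-273 peptide. Supernatant mouse IL-2 by AlphaLISA; IC50 by 4-PL fit of 8-point duplicate titrations.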

| Structure (SMILES) | IC50 (HLA-DRB1*0401) [nM] | IC50 [1] [nM] | IC50 [2] [nM] |
| --- | --- | --- | --- |
| O=C1CCOc2cc(O[C@@H](c3ccncc3)c3ccc(F)cc3)ccc21 (single isomer, unassigned) [Example 3a, (*R)-7-((4-Fluorophenyl)(pyridin-4-yl)methoxy)chroman-4-one] | 1600 | 15000 | 4200 |
| NC(=O)c1ccc([C@H](Oc2ccc3c(c2)OCCC3=O)c2ccnc(N)c2)cc1 (single isomer, unassigned) [Example 28b, (*S)-4-((2-aminopyridin-4-yl)((4-oxochroman-7-yl)oxy)methyl)benzamide] | 1700 | > 15000 | 3500 |
| COc1ccc(COc2cccc([C@@H](Oc3ccc4c(c3)OCCC4=O)c3ccncc3)c2)cc1 (single isomer, unassigned) [Example 4b, (*S)-7-((3-((4-Methoxybenzyl)oxy)phenyl)(pyridin-4-yl)methoxy)chroman-4-one] | 7900 | 15000 | 2600 |
| Cc1c(O[C@@H](c2ccc(Cl)cc2)c2ccc(C(N)=O)cn2)ccc2c1OCCC2=O (single isomer, unassigned) [Example 63b, (*S)-6-((4-chlorophenyl)((8-methyl-4-oxochroman-7-yl)oxy)methyl)nicotinamide] | 1500 | 4700 | 1300 |
| NC(=O)c1ccc([C@@H](Oc2cc3c(cc2F)C(=O)CCO3)c2ccncc2)cc1 (single isomer, unassigned) [Example 52a, (*R)-4-(((6-Fluoro-4-oxochroman-7-yl)oxy)(pyridin-4-yl)methyl)benzamide] | 230 | > 15000 | 560 |
| Cc1c(O[C@H](c2ccccc2)c2ccc(C(=O)O)cc2)ccc2c1OCCC2=O (single isomer, unassigned) [Example 70a, (*R)-4-(((8-methyl-4-oxochroman-7-yl)oxy)(phenyl)methyl)benzoic acid] | 1300 | 4700 | 7100 |
| Cc1c(O[C@H](c2ccc(C(N)=O)cc2)c2cccc(C#N)c2)ccc2c1OCCC2=O (single isomer, unassigned) [Example 60a, (*R)-4-((3-cyanophenyl)((8-methyl-4-oxochroman-7-yl)oxy)methyl)benzamide] | 1800 | 4700 | 740 |
| COc1ccc(COc2cccc([C@H](Oc3ccc4c(c3)OCCC4=O)c3ccncc3)c2)cc1 (single isomer, unassigned) [Example 4a, (*R)-7-((3-((4-Methoxybenzyl)oxy)phenyl)(pyridin-4-yl)methoxy)chroman-4-one] | 6900 | 7800 | 2900 |
| COc1cccc([C@@H](Oc2ccc3c(c2)OCCC3=O)c2ccncc2)c1 (single isomer, unassigned) [Example 13b, (*S)-7-((3-methoxyphenyl)(pyridin-4-yl)methoxy)chroman-4-one] | 1400 | > 15000 | 4700 |
| O=C1CCOc2cc(O[C@@H](c3ccccc3)c3ccncc3)ccc21 (single isomer, unassigned) [Example 114b, (*S)-7-(phenyl(pyridin-4-yl)methoxy)chroman-4-one] | 1300 | 4700 | 3000 |
| CCC1COc2cc(OCc3ccncc3)ccc2C1=O (racemic) [Example 120, (R,S)-3-Ethyl-7-(pyridin-4-ylmethoxy)chroman-4-one] | 1200 | > 15000 | 5100 |
| Cc1c(O[C@H](c2ccc(C(N)=O)cc2)c2ccnc(CCC(=O)O)c2)ccc2c1OCCC2=O (single isomer, unassigned) [Example 87a] | 580 | > 15000 | 830 |
| NC(=O)c1ccc([C@@H](Oc2ccc3c(c2)OCCC3=O)c2ccccc2)cc1 (single isomer, unassigned) [Example 29b, (*S)-4-(((4-oxochroman-7-yl)oxy)(phenyl)methyl)benzamide] | 960 | > 15000 | 5000 |
| NC(=O)c1ccc([C@H](Oc2ccc3c(c2Br)OCCC3=O)c2ccncc2)cc1 (single isomer, unassigned) [Example 102b, (*S)-4-(((8-bromo-4-oxochroman-7-yl)oxy)(pyridin-4-yl)methyl)benzamide] | > 89000 | > 15000 | 91 |
| Cc1cc2c(c(C)c1O[C@@H](c1ccncc1)c1ccc(C(N)=O)cc1)OCCC2=O (single isomer, unassigned) [Example 89a, (*R)-4-(((6,8-dimethyl-4-oxochroman-7-yl)oxy)(pyridin-4-yl)methyl)benzamide] | 470 | 4700 | 1800 |
| NC(=O)c1ccc([C@H](Oc2cc3c(cc2F)C(=O)CCO3)c2ccncc2)cc1 (single isomer, unassigned) [Example 52b, (*S)-4-(((6-Fluoro-4-oxochroman-7-yl)oxy)(pyridin-4-yl)methyl)benzamide] | 300 |  | 8500 |
| COc1ccc([C@@H](Oc2c(F)cc3c(c2C)OCCC3=O)c2ccncc2)cc1F (single isomer, unassigned) [Example 97b, (*S)-6-fluoro-7-((3-fluoro-4-methoxyphenyl)(pyridin-4-yl)methoxy)-8-methylchroman-4-one] | 380 |  | > 15000 |
| N#Cc1ccccc1[C@@H](Oc1ccc2c(c1)OCCC2=O)c1ccncc1 (single isomer, unassigned) [Example 7b, (*S)-2-(((4-Oxochroman-7-yl)oxy)(pyridin-4-yl)methyl)benzonitrile] | 960 |  | 5400 |
| CC(C)c1c(O[C@@H](c2ccc(C(N)=O)cc2)c2ccc(C(=O)O)cc2)ccc2c1OCCC2=O (single isomer, unassigned) [Example 108b, (*S)-4-((4-carbamoylphenyl)((8-isopropyl-4-oxochroman-7-yl)oxy)methyl)benzoic acid] | 820 |  | 2700 |
| NC(=O)c1ccc([C@H](Oc2ccc3c(c2)OCCC3=O)c2ccncc2F)cc1 (single isomer, unassigned) [Example 20b, (*S)-4-((3-fluoropyridin-4-yl)((4-oxochroman-7-yl)oxy)methyl)benzamide] | 910 |  | 6200 |
| Cc1c(O[C@H](c2ccc(C(N)=O)cc2)c2ccc(F)c(F)c2)c(F)cc2c1OCCC2=O (single isomer, unassigned) [Example 91a, (*R)-4-((3,4-difluorophenyl)((6-fluoro-8-methyl-4-oxochroman-7-yl)oxy)methyl)benzamide] | 550 |  | 7800 |
| Cc1cnccc1[C@H](Oc1ccc2c(c1)OCCC2=O)c1ccc(C(N)=O)cc1 (single isomer, unassigned) [Example 21a, (*R)-4-((3-Methylpyridin-4-yl)((4-oxochroman-7-yl)oxy)methyl)benzamide] | 1000 |  | 5400 |
| Cc1c(O[C@@H]2CCc3cnccc32)ccc2c1OCCC2=O (single isomer, unassigned) [Example 124a, (*R)-7-((6,7-dihydro-5H-cyclopenta[c]pyridin-5-yl)oxy)-8-methylchroman-4-one] | 570 |  | 14000 |
| NC(=O)c1ccc([C@H](Oc2ccc3c(c2)OCCC3=O)c2ccccn2)cc1 (single isomer, unassigned) [Example 32b, (*S)-4-(((4-oxochroman-7-yl)oxy)(pyridin-2-yl)methyl)benzamide] | 1900 |  | > 15000 |
